Key:
Assay type in all cases: in vivo
Zea mays (ZEAMX) = test: Post-emergence glasshouse herbicide test, percentage damage to crop plant; conditions: POST Application, 125 g/ha, evaluated after 14 days; crop (corn)
Method: (§1) Seeds of a variety of test species were sown in standard soil in pots (Amaranthus retoflexus (AMARE), Abutilon theophrasti (ABUTH), Digitaria sanguinalis (DIGSA), Setaria faberi (SETFA) and Zea mays (ZEAMX). After cultivation for 10 days under controlled conditions in a glasshouse (at 24/16° C., day/night; 14 hours light; 65% humidity), the plants were sprayed with an aqueous spray solution derived from the formulation of the technical active ingredient in 0.6 ml acetone and 45 ml formulation solution containing 10.6% Emulsogen EL (Registry number 61791-12-6), 42.2% N-methyl pyrrolidone, 42.2% dipropylene glycol monomethyl ether (CAS RN 34590-94-8) and 0.2% X-77 (CAS RN 11097-66-8). The test plants were then grown in a glasshouse under controlled conditions in a glasshouse (at 24/16° C., day/night; 14 hours light; 65% humidity) and watered twice daily. After 14 days the test is evaluated for the percentage damage caused to the plant. The biological activities are shown in the following table on a five point scale (5=80-100%; 4=60-79%; 3=40-59%; 2=20-39%; 1=0-19%).

Setaria faberi (SETFA) = test: Post-emergence glasshouse herbicide test, percentage damage to plant; conditions: POST Application, 125 g/ha, evaluated after 14 days
Method: as §1

[1] = system: Digitaria sanguinalis (DIGSA); test: as above; conditions: POST Application, 125 g/ha, evaluated after 14 days
Method: as §1

[2] = system: Abutilon theophrasti (ABUTH); test: as above; conditions: POST Application, 125 g/ha, evaluated after 14 days
Method: as §1

[3] = system: Amaranthus retoflexus (AMARE); test: as above; conditions: POST Application, 125 g/ha, evaluated after 14 days
Method: as §1

`Cc1cc(C(=O)C2=C(O)CCCC2=O)c(=O)n(CC(=O)N(C)C)n1` [Compound 1.001] was tested, and the “ZEAMX percentage damage caused to the plant (five point scale)” value (“ZEAMX percentage damage caused” for short) (Zea mays (ZEAMX)) was 1 (1=0-19%), the “SETFA percentage damage caused to the plant (five point scale)” value (“SETFA percentage damage caused” for short) (Setaria faberi (SETFA)) was 5 (5=80-100%) and the “DIGSA percentage damage caused to the plant (five point scale)” value (“DIGSA percentage damage caused” for short) [1] was 5 (5=80-100%). For the same molecule, the “ABUTH percentage damage caused to the plant (five point scale)” value (“ABUTH percentage damage caused” for short) [2] was 5 (5=80-100%) and the “AMARE percentage damage caused to the plant (five point scale)” value (“AMARE percentage damage caused” for short) [3] was 5 (5=80-100%).

With `Cc1cc(C(=O)C2=C([O-])CCCC2=O)c(=O)n(CCC(=O)N(C)C)n1.[Na+]` [Compound 1.002, sodium 2-[2-[3-(dimethylamino)-3-oxo-propyl]-6-methyl-3-oxo-pyridazine-4-carbonyl]-3-oxo-cyclohexen-1-olate] the “ZEAMX percentage damage caused” value (Zea mays (ZEAMX)) was 1 (1=0-19%), the “SETFA percentage damage caused” value (Setaria faberi (SETFA)) was 5 (5=80-100%) and the “DIGSA percentage damage caused” value [1] was 5 (5=80-100%). The “ABUTH percentage damage caused” value [2] was 5 (5=80-100%) and the “AMARE percentage damage caused” value [3] was 5 (5=80-100%).

For `Cc1cc(C(=O)C2=C(O)CCCC2=O)c(=O)n(CCC(=O)N2CCOCC2)n1` [Compound 1.004], the “ZEAMX percentage damage caused” value (Zea mays (ZEAMX)) was 1 (1=0-19%), the “SETFA percentage damage caused” value (Setaria faberi (SETFA)) was 5 (5=80-100%) and the “DIGSA percentage damage caused” value [1] was 5 (5=80-100%). The “ABUTH percentage damage caused” value [2] was 5 (5=80-100%) and the “AMARE percentage damage caused” value [3] was 5 (5=80-100%).

`CNC(=O)CCn1nc(C)cc(C(=O)C2=C(O)CCCC2=O)c1=O` [Compound 1.006] was tested, and the “ZEAMX percentage damage caused” value (Zea mays (ZEAMX)) was 1 (1=0-19%), the “SETFA percentage damage caused” value (Setaria faberi (SETFA)) was 5 (5=80-100%) and the “DIGSA percentage damage caused” value [1] was 5 (5=80-100%). For the same molecule, the “ABUTH percentage damage caused” value [2] was 4 (4=60-79%) and the “AMARE percentage damage caused” value [3] was 5 (5=80-100%).

In the case of `CCN(CC)C(=O)CCn1nc(C)cc(C(=O)C2=C(O)CCCC2=O)c1=O` [Compound 1.007], the “ZEAMX percentage damage caused” value (Zea mays (ZEAMX)) is reported as 1 (1=0-19%), the “SETFA percentage damage caused” value (Setaria faberi (SETFA)) is reported as 5 (5=80-100%) and the “DIGSA percentage damage caused” value [1] is reported as 5 (5=80-100%). The “ABUTH percentage damage caused” value [2] was 5 (5=80-100%) and the “AMARE percentage damage caused” value [3] was 5 (5=80-100%).

`CNC(=O)OCCn1nc(C)cc(C(=O)C2=C(O)CCCC2=O)c1=O` [Compound 1.008] was tested, and the “ZEAMX percentage damage caused” value (Zea mays (ZEAMX)) was 1 (1=0-19%), the “SETFA percentage damage caused” value (Setaria faberi (SETFA)) was 5 (5=80-100%) and the “DIGSA percentage damage caused” value [1] was 5 (5=80-100%). The “ABUTH percentage damage caused” value [2] was 5 (5=80-100%) and the “AMARE percentage damage caused” value [3] was 5 (5=80-100%).

In the case of `Cc1cc(C(=O)C2=C(O)CCCC2=O)c(=O)n(CCOC(=O)N(C)C)n1` [Compound 1.009], the “ZEAMX percentage damage caused” value (Zea mays (ZEAMX)) is reported as 1 (1=0-19%), the “SETFA percentage damage caused” value (Setaria faberi (SETFA)) is reported as 4 (4=60-79%) and the “DIGSA percentage damage caused” value [1] is reported as 5 (5=80-100%). The “ABUTH percentage damage caused” value [2] was 5 (5=80-100%) and the “AMARE percentage damage caused” value [3] was 5 (5=80-100%).

For `Cc1cc(C(=O)C2=C([O-])CC(C)CC2=O)c(=O)n(CCC(=O)N(C)C)n1.[Na+]` (stereo not drawn) [Compound 1.010], the “ZEAMX percentage damage caused” value (Zea mays (ZEAMX)) was 1 (1=0-19%), the “SETFA percentage damage caused” value (Setaria faberi (SETFA)) was 5 (5=80-100%) and the “DIGSA percentage damage caused” value [1] was 5 (5=80-100%). The “ABUTH percentage damage caused” value [2] was 5 (5=80-100%) and the “AMARE percentage damage caused” value [3] was 5 (5=80-100%).

`CCN(C)C(=O)CCn1nc(C)cc(C(=O)C2=C([O-])CCCC2=O)c1=O.[Na+]` [Compound 1.013] was tested, and the “ZEAMX percentage damage caused” value (Zea mays (ZEAMX)) was 1 (1=0-19%), the “SETFA percentage damage caused” value (Setaria faberi (SETFA)) was 5 (5=80-100%) and the “DIGSA percentage damage caused” value [1] was 5 (5=80-100%). The “ABUTH percentage damage caused” value [2] was 5 (5=80-100%) and the “AMARE percentage damage caused” value [3] was 5 (5=80-100%).

For `Cc1cc(C(=O)C2=C([O-])CCCC2=O)c(=O)n(CCC(=O)N(C)CC(F)(F)F)n1.[Na+]` [Compound 1.014], the “ZEAMX percentage damage caused” value (Zea mays (ZEAMX)) was 1 (1=0-19%), the “SETFA percentage damage caused” value (Setaria faberi (SETFA)) was 5 (5=80-100%) and the “DIGSA percentage damage caused” value [1] was 5 (5=80-100%). For the same molecule, the “ABUTH percentage damage caused” value [2] was 5 (5=80-100%) and the “AMARE percentage damage caused” value [3] was 5 (5=80-100%).

For `CN(C)C(=O)CCn1nc(C2CC2)cc(C(=O)C2=C([O-])CCCC2=O)c1=O.[Na+]` [Compound 1.016], the “ZEAMX percentage damage caused” value (Zea mays (ZEAMX)) was 1 (1=0-19%), the “SETFA percentage damage caused” value (Setaria faberi (SETFA)) was 4 (4=60-79%) and the “DIGSA percentage damage caused” value [1] was 5 (5=80-100%). For the same molecule, the “ABUTH percentage damage caused” value [2] was 5 (5=80-100%) and the “AMARE percentage damage caused” value [3] was 5 (5=80-100%).

For `Cc1cc(C(=O)C2=C([O-])CCCC2=O)c(=O)n(CC(F)(F)C(=O)N(C)C)n1.[Na+]` [Compound 1.018], the “ZEAMX percentage damage caused” value (Zea mays (ZEAMX)) was 1 (1=0-19%), the “SETFA percentage damage caused” value (Setaria faberi (SETFA)) was 5 (5=80-100%) and the “DIGSA percentage damage caused” value [1] was 5 (5=80-100%). For the same molecule, the “ABUTH percentage damage caused” value [2] was 5 (5=80-100%) and the “AMARE percentage damage caused” value [3] was 5 (5=80-100%).

`Cc1cc(C(=O)C2=C([O-])CC(C)CC2=O)c(=O)n(CCC(=O)N(C)CC(F)(F)F)n1.[Na+]` (stereo not drawn) [Compound 1.020] was tested, and the “ZEAMX percentage damage caused” value (Zea mays (ZEAMX)) was 1 (1=0-19%), the “SETFA percentage damage caused” value (Setaria faberi (SETFA)) was 5 (5=80-100%) and the “DIGSA percentage damage caused” value [1] was 5 (5=80-100%). The “ABUTH percentage damage caused” value [2] was 5 (5=80-100%) and the “AMARE percentage damage caused” value [3] was 4 (4=60-79%).

In the case of `CCN(CC)C(=O)OCCn1nc(C)cc(C(=O)C2=C([O-])CCCC2=O)c1=O.[Na+]` [Compound 1.021], the “ZEAMX percentage damage caused” value (Zea mays (ZEAMX)) is reported as 1 (1=0-19%), the “SETFA percentage damage caused” value (Setaria faberi (SETFA)) is reported as 5 (5=80-100%) and the “DIGSA percentage damage caused” value [1] is reported as 5 (5=80-100%). For the same molecule, the “ABUTH percentage damage caused” value [2] was 5 (5=80-100%) and the “AMARE percentage damage caused” value [3] was 4 (4=60-79%).

`CCN(C)C(=O)OCCn1nc(C)cc(C(=O)C2=C([O-])CCCC2=O)c1=O.[Na+]` [Compound 1.022] was tested, and the “ZEAMX percentage damage caused” value (Zea mays (ZEAMX)) was 1 (1=0-19%), the “SETFA percentage damage caused” value (Setaria faberi (SETFA)) was 5 (5=80-100%) and the “DIGSA percentage damage caused” value [1] was 5 (5=80-100%). For the same molecule, the “ABUTH percentage damage caused” value [2] was 5 (5=80-100%) and the “AMARE percentage damage caused” value [3] was 5 (5=80-100%).

`Cc1cc(C(=O)C2=C([O-])CCCC2=O)c(=O)n(CCOC(=O)N(C)CC(F)(F)F)n1.[Na+]` [Compound 1.023] was tested, and the “ZEAMX percentage damage caused” value (Zea mays (ZEAMX)) was 1 (1=0-19%), the “SETFA percentage damage caused” value (Setaria faberi (SETFA)) was 5 (5=80-100%) and the “DIGSA percentage damage caused” value [1] was 5 (5=80-100%). The “ABUTH percentage damage caused” value [2] was 3 (3=40-59%) and the “AMARE percentage damage caused” value [3] was 3 (3=40-59%).

In the case of `Cc1cc(C(=O)C2=C([O-])CCCC2=O)c(=O)n(CCOC(=O)N2CCCC2)n1.[Na+]` [Compound 1.024], the “ZEAMX percentage damage caused” value (Zea mays (ZEAMX)) is reported as 1 (1=0-19%), the “SETFA percentage damage caused” value (Setaria faberi (SETFA)) is reported as 5 (5=80-100%) and the “DIGSA percentage damage caused” value [1] is reported as 5 (5=80-100%). The “ABUTH percentage damage caused” value [2] was 2 (2=20-39%) and the “AMARE percentage damage caused” value [3] was 4 (4=60-79%).

With `Cc1cc(C(=O)C2=C([O-])CCCC2=O)c(=O)n(CCOC(=O)N2CCOCC2)n1.[Na+]` [Compound 1.025] the “ZEAMX percentage damage caused” value (Zea mays (ZEAMX)) was 1 (1=0-19%), the “SETFA percentage damage caused” value (Setaria faberi (SETFA)) was 5 (5=80-100%) and the “DIGSA percentage damage caused” value [1] was 5 (5=80-100%). The “ABUTH percentage damage caused” value [2] was 5 (5=80-100%) and the “AMARE percentage damage caused” value [3] was 5 (5=80-100%).

For `Cc1cc(C(=O)C2=C([O-])CC(C)CC2=O)c(=O)n(CCOC(=O)N(C)C)n1.[Na+]` (stereo not drawn) [Compound 1.026], the “ZEAMX percentage damage caused” value (Zea mays (ZEAMX)) was 1 (1=0-19%), the “SETFA percentage damage caused” value (Setaria faberi (SETFA)) was 5 (5=80-100%) and the “DIGSA percentage damage caused” value [1] was 5 (5=80-100%). For the same molecule, the “ABUTH percentage damage caused” value [2] was 5 (5=80-100%) and the “AMARE percentage damage caused” value [3] was 5 (5=80-100%).

In the case of `Cc1cc(C(=O)C2=C([O-])CC(C)(C)CC2=O)c(=O)n(CCOC(=O)N(C)C)n1.[Na+]` [Compound 1.027], the “ZEAMX percentage damage caused” value (Zea mays (ZEAMX)) is reported as 1 (1=0-19%), the “SETFA percentage damage caused” value (Setaria faberi (SETFA)) is reported as 5 (5=80-100%) and the “DIGSA percentage damage caused” value [1] is reported as 5 (5=80-100%). For the same molecule, the “ABUTH percentage damage caused” value [2] was 5 (5=80-100%) and the “AMARE percentage damage caused” value [3] was 5 (5=80-100%).

For `Cc1cc(C(=O)C2=C([O-])CCCC2=O)c(=O)n(C(C)C(=O)N(C)C)n1.[Na+]` (stereo not drawn) [Compound 1.029], the “ZEAMX percentage damage caused” value (Zea mays (ZEAMX)) was 1 (1=0-19%), the “SETFA percentage damage caused” value (Setaria faberi (SETFA)) was 5 (5=80-100%) and the “DIGSA percentage damage caused” value [1] was 5 (5=80-100%). The “ABUTH percentage damage caused” value [2] was 5 (5=80-100%) and the “AMARE percentage damage caused” value [3] was 5 (5=80-100%).

Reference: US10881106B2, “Herbicidal pyridazinone compounds” (SYNGENTA PARTICIPATIONS AG, priority 2016, dated 2021)
